According to patent US20240122934A1, “COMPOSITIONS AND METHODS OF TREATMENT FOR INHIBITING CAPILLARY TUBE REGRESSION” (University of South Florida, priority 2019, published 2024):
“Also recorded” adds a separate entry of the source.

Tests used:
Type in all cases: cell-based, human
[1] = tested on: EC tube networks; test: 3D collagen EC tube regression assay; conditions: for EC tube regression in screen of growth factors and cytokines: 40 and 10 ng/ml, 48 hr EC tube networks; for effect of added HDAC6 inhibitor on pharmacologic rescue: 10 μM added to FISSB2, mediators 10 ng/ml, thrombin 1 μg/ml; for effect of added HDAC6 inhibitor on pharmacologic rescue / EC tube regression (pro-regressive activity): 24 hr; for EC tube regression (pro-regressive activity): factor added to established 48 hr EC tube networks
Method: (A) EC cultures with tube networks were established for 48 hr followed by the addition of indicated cytokines or thrombin (Thr) for 24 hr. IL-1β and IL-la were added at 1 ng/ml, TNFα at 3.16 ng/ml and thrombin at 1 μg/ml. Bars equal 100 or 200 μm. (B,C,D) EC tube networks were treated with the indicated cytokines and varying concentrations in dose-response analyses and in the presence or absence of thrombin added at 1 μg/ml. After 24 hr, cultures were fixed, stained and quantitated for EC lumen area per field. These curves are from a representative experiment using triplicate wells for each condition. The values (±SD) are derived from analyzed fields (n=15) where total lumen and tube area was measured. Asterisks indicate significance at p<0.05 compared to control and squares indicate significance at p<0.05 compared to the cytokine treatments alone.
ECs (passages 3-6) and pericytes (passages 3-12) were cultured as previously described^49,50. THP-1 cells were cultured in RPMI-1640-20% FCS. THP-1-T macrophages were differentiated for 72 hr. with 50 ng/ml of phorbol ester in RPMI-20% FCS, and then treated for 48 hr. in RPMI-2% FCS prior to adding TLR ligands. THP-1-VT macrophages were induced to differentiate for 72 hr. with 10^-7 M vitamin D3 (Calcitriol) in RPMI-20% FCS, followed by 48 hr. with phorbol ester in RPMI-2% FCS prior to adding TLR ligands.
(§1) ECs or ECs with pericytes were suspended in 3D collagen matrices and incubated at 37° C. in serum-free defined media as described^9,50,51. Recombinant factors or THP-1 conditioned media were added at the indicated doses to existing 48 or 72 hr. cultures with EC only or EC-pericyte tube networks, respectively. After 24 or 48 hr. for EC only or EC-pericyte tubes, respectively, cultures were fixed in 3% glutaraldehyde or 3% paraformaldehyde. EC tube areas were traced and quantitated as described. In some cases, neutralizing antibodies were added (10 μg/ml). For signaling experiments, lysates were prepared from control vs. regressing 3D cultures at different time points.

[2] = tested on: EC sprouts and tubes; test: angiogenic sprouting assay (ECs invading from monolayer surface); conditions: for EC tube regression by signaling-mimicking drugs: Frax486 2.5 μM, vinblastine 100 nM, 24 hr
Method: (A) ECs were seeded onto a monolayer surface and then allowed to invade into the gels to form tubes over a 48 hr period. At this time, cultures were then treated with IL-1β or TNFα and in the absence or presence of FIST. Cultures were fixed after 24 hr, stained and photographed to visualize the monolayer surface and the underlying sprouts and tubes. (B) Cultures were established just like in A and then the Pak2 inhibitor, Frax486 (2.5 μM) or the microtubule depolymerizing agent, vinblastine (100 nM), were added to media in the presence or absence of FIST. Cultures were fixed after 24 hr, stained and photographed. Bar equals 200 μm.
Studies to define the factors and signals that promote endothelial cell (EC) lumen and tube formation, EC sprouting and EC-pericyte tube co-assembly have been performed under serum-free defined conditions so that the functional role of individual molecules that regulate these processes can be assessed. Disclosed herein, the factors that control capillary regression are defined. Capillary regression is a process that has been largely neglected despite the likelihood that it may present a fundamental pathogenic feature of major human diseases where capillary disassembly and regression are known to occur (i.e. hypertension, diabetes, ischemic disease in many tissues, neurodegenerative diseases, and malignant cancer). […] EC tube networks were allowed to form for 48 hr. (vasculogenesis type of assay) and then added these agents in dose-response experiments, showing that they potently induce EC tube regression (at low ng levels) (FIG. 1). Real-time movies were performed to visualize these pro-regressive activities. This experimental approach has utilized assays that mimic vasculogenesis or angiogenic sprouting and these factors induce regression equally well in both assay systems. […] These studies have been performed primarily in 3D collagen matrices, but the same result is also observed in 3D fibrin matrices.

[3] = tested on: EC-pericyte tube networks; test: EC-pericyte co-culture regression assay; conditions: added to 72 hr co-cultures
Method: (A) EC-pericyte (GFP-labeled) co-cultures were established and allowed to form for 72 hr and at this time, the combination of IL-1β (10 ng/ml), TNFα (10 ng/ml) and thrombin (11 μg/ml) were added in combination compared to control and real-time movies were performed. Light and fluorescent image overlays over time are shown in representative fields. Arrowheads indicate clusters of pericytes that accumulate together during regression responses in response to these three factors in combination. After 48 hr, fixed cultures were stained for CD31 to detect ECs and fluorescence image overlays were performed. (B) The same set up was established as in A, except that each individual factor and combination of factors were added. After 48 hr, the cultures were fixed and stained for CD31. Confocal images were obtained, and fluorescence overlay images are shown.
(A) EC-pericyte co-cultures were established for 72 hr, and then were left untreated or with IL-1β (10 ng/ml), TNFα (10 ng/ml), and thrombin (11 μg/ml) in combination. After 48 hr, cultures were fixed and stained with CD31, confocal microscopy and 3D reconstruction of the images allowed for an upright and side view. (B) EC-pericyte tube networks were treated with the indicated single and combined factors and after fixation, EC tube area was quantitated. […] The values (±SD) were obtained from analyzed fields (n=15) where total lumen and tube area was measured. Asterisks indicate increased significance at p<0.05 compared to control, the squares indicate decreased significance at p<0.05 relative to the single factor conditions and the triangle indicates significance at p<0.05 relative to the double factor conditions. (C) EC-pericyte tube networks were treated with indicated combinations of factors. After 48 hr, total GFP fluorescence per well was quantitated as a measure of pericyte number since they are GFP-labeled. […] Asterisks indicate significance at p<0.05 compared to control.
as §1

[4] = tested on: EC tube networks; test: Western blots of lysates from regressing 3D EC cultures (regression signaling signature); conditions: 24-hr. time course, compared to control EC tubes
Method: (A,B) ECs tube networks were treated with the indicated factors vs. control and at different time points, lysates were prepared from the 3D cultures. Western blots were performed using the different indicated antibodies. (C) Schematic illustrating findings that define a capillary regression signaling signature.
THP-T macrophages were treated with Pam3CSK4 (Pam) or LPS and conditioned medium was added at a 1:20 or 1:50 dilution, respectively, to EC tube networks. Control and IL10-treated cultures were compared with the conditioned medium treatments within the same experiment. At the indicated time points, lysates were obtained, and Western blots were performed with the indicated antibodies.
as §1

With TGFβ1: growth factor the “EC tube regression in screen of growth factors and cytokines” value (shortened to “EC tube regression in screen”) [1] was “demonstrated significantly increased regression at both doses”.

In the case of `CCn1c(=O)c(-c2ccc(Cl)cc2Cl)cc2cnc(Nc3ccc(N4CCNCC4)c(F)c3)nc21` [Frax486, reference compound], the “EC tube regression by signaling-mimicking drugs” value [2] is reported as “led to marked regression”.

For `CC[C@]1(O)C[C@@H]2CN(CCc3c([nH]c4ccccc34)[C@@](C(=O)OC)(c3cc4c(cc3OC)N(C)[C@H]3[C@@](O)(C(=O)OC)[C@H](OC(C)=O)[C@]5(CC)C=CCN6CC[C@]43[C@@H]65)C2)C1` [vinblastine, reference compound], the “EC tube regression by signaling-mimicking drugs” value [2] was “led to marked regression”.

In the case of IL-13: cytokine, the “EC tube regression in screen” value [1] is reported as “demonstrated significantly increased regression at both doses”.

For `O=C(CCCCCCC(=O)Nc1ccc([C@H]2O[C@@H](CSc3nc(-c4ccccc4)c(-c4ccccc4)o3)C[C@@H](c3ccc(CO)cc3)O2)cc1)NO` [tubacin, reference compound], the “effect of added HDAC6 inhibitor on pharmacologic rescue” value [1] was “enhance the pharmacologic rescue of capillary regression induced by pro-inflammatory mediators”.

For “IL-6: cytokine co-induced in macrophages along with IL-1 and TNF”, the “EC tube regression (pro-regressive activity)” value [1] was “does not have pro-regressive activity; also recorded: had no regressive effect”.

For `CN1CCc2c(c3ccccc3n2Cc2ccc(C(=O)NO)cc2)C1` [tubastatin, reference compound], the “effect of added HDAC6 inhibitor on pharmacologic rescue” value [1] was “enhance the pharmacologic rescue of capillary regression induced by pro-inflammatory mediators”.

For IFNα, the “EC tube regression in screen” value [1] was “did not have any activity”.

With `C[C@@H](N)[C@H]1CC[C@H](C(=O)Nc2ccncc2)CC1` [Y27632, reference compound] the “effect of adding drug to FISTSB on rescue” value ([1]; FISTSBY vs FISTSB) was “did not enhance the ability of FISTSB to rescue capillary regression”.

IFNγ: interferon gamma was tested, and the “EC tube regression in screen” value [1] was “demonstrated significantly increased regression at both doses”.

In the case of “IL-1β: interleukin-1 beta, pro-inflammatory cytokine”, the “EC tube regression in screen” value [1] is reported as “more potent pro-regressive factors than the other factors described herein”, the “EC tube regression (pro-regressive activity)” value [1] is reported as “directly cause capillary tube collapse and regression” and the “degeneration of sprouts and EC monolayer” value ([2]; angiogenic sprouting system) is reported as “induce degeneration of the invading sprouts, but also the EC monolayer surface where the sprouts originated”. For the same molecule, the “EC tube regression in EC-pericyte co-cultures” value [3] was “marked tube regression in response to each factor individually and, also in combination”, the pericyte numbers [3] was “an increase in pericyte numbers” and the “ICAM-1 and VCAM-1 levels” value [4] was “Strong upregulation of ICAM-1 and VCAM-1”. For the same molecule, the “phospho-Pak2, phospho-cofilin, acetylated tubulin, procaspase3 levels” value [4] was “decreased levels of phospho-Pak2, phospho-cofilin, acetylated tubulin and procaspase3” and the “phospho-p38, phospho-JNK, phospho-MLC2 levels” value [4] was “increased levels of phospho-p38, phospho-JNK, and phospho-MLC2”.

B1: IL-4: interleukin-4 (protein, UniProt P05112 25-153, looked up)
Interleukin-4: HKCDITLQEIIKTLNSLTEQKTLCTELTVTDIFAASKNTTEKETFCRAATVLRQFYSHHEKDTRCLGATAQQFHRHKQLIRFLKRLDRNLWGLAGLNSCPVKEANQSTLENFLERLKTIMREKYSKCSS
With B1 the “EC tube regression in screen” value [1] was “demonstrated significantly increased regression at both doses”.

B2: Light: pro-regressive factor identified in the cytokine screen (protein, UniProt O43557 83-240, looked up)
Tumor necrosis factor ligand …: LIQERRSHEVNPAAHLTGANSSLTGSGGPLLWETQLGLAFLRGLSYHDGALVVTKAGYYYIYSKVQLGGVGCPLGLASTITHGLYKRTPRYPEELELLVSQQSPCGRATSSSRVWWDSSFLGGVVHLEAGEKVVVRVLDERLVRLRDGTRSYFGAFMV
With B2 the “EC tube regression in screen” value [1] was “demonstrated significantly increased regression at both doses”.

B3: BMP-10: growth factor (protein, UniProt O95393 317-424, looked up)
Bone morphogenetic protein 10: NAKGNYCKRTPLYIDFKEIGWDSWIIAPPGYEAYECRGVCNYPLAEHLTPTKHAIIQALVHLKNSQKASKACCVPTKLEPISILYLDKGVVTYKFKYEGMAVSECGCR
B3 was tested, and the “EC tube regression in screen” value [1] was “demonstrated significantly increased regression at both doses”.

B4: TGFβ2: growth factor (protein, UniProt P61812 303-414, looked up)
Transforming growth factor …: ALDAAYCFRNVQDNCCLRPLYIDFKRDLGWKWIHEPKGYNANFCAGACPYLWSSDTQHSRVLSLYNTINPEASASPCCVSQDLEPLTILYYIGKTPKIEQLSNMIVKSCKCS
B4 was tested, and the “EC tube regression in screen” value [1] was “demonstrated significantly increased regression at both doses”.

B5: IL-la: IL-1 isoform, pro-regressive cytokine (protein, UniProt P01583 113-271, looked up)
Interleukin-1 alpha: SAPFSFLSNVKYNFMRIIKYEFILNDALNQSIIRANDQYLTAAALHNLDEAVKFDMGAYKSSKDDAKITVILRISKTQLYVTAQDEDQPVLLKEMPEIPKTITGSETNLLFFWETHGTKNYFTSVAHPNLFIATKQDYWVCLAGGPPSITDFQILENQA
In the case of B5, the “EC tube regression (pro-regressive activity)” value [1] is reported as “directly cause capillary tube collapse and regression; also recorded: powerful ability to induce EC tube regression”.

B6: BMP-9: growth factor (protein, UniProt Q9UK05 320-429, looked up)
Growth/differentiation factor …: SAGAGSHCQKTSLRVNFEDIGWDSWIIAPKEYEAYECKGGCFFPLADDVTPTKHAIVQTLVHLKFPTKVGKACCVPTKLSPISVLYKDDMGVPTLKYHYEGMSVAECGCR
B6 was tested, and the “EC tube regression in screen” value [1] was “demonstrated significantly increased regression at both doses”.
